Source: the supplement of paper PMC4862054

Test system: MDA-MB-453
Assay: normalised response (% of control), CellTox Green; higher = less cell death (100 = DMSO, 0 = benzethonium chloride kill control)
Settings: incubation time: 72 h
Procedure, shortened: (§1)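 Breast cancer cell lines, seeded at 20 µl suspension per well, were incubated for 72 h in 384-well plates containing compound at 5 concentrations. These concentrations rose in 10-fold steps over a 10,000-fold range set for each compound. CellTox Green fluorescence (485/520 nm) was read, then CellTiter-Glo luminescence after 10 min at room temperature, and each plate was normalised to 0.1 % DMSO (100) and a positive kill control (0). Values are normalised signals, each at one concentration.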

Compound	normalised response [%]
COc1cc2c(Oc3ccc(NC(=O)C4(C(=O)Nc5ccc(F)cc5)CC4)cc3F)ccnc2cc1OCCCN1CCOCC1 [Foretinib] (10 nM)	84.9
COc1cc(Nc2ncc(F)c(Nc3ccc4c(n3)N(COP(=O)(O)O)C(=O)C(C)(C)O4)n2)cc(OC)c1OC [Fostamatinib] (25 nM)	105
CC[C@@H]1C(=O)N(C)c2cnc(Nc3ccc(C(=O)N[C@H]4CC[C@H](N5CCN(CC6CC6)CC5)CC4)cc3OC)nc2N1C(C)C [Volasertib] (10 nM)	92.4

Test system: MFM-223
Assay: as above
Settings: incubation time: 72 h
Procedure, shortened: as §1

Compound	normalised response [%]
CC(C)(C)Cn1c(N)nc2ccc(-c3[nH]c(C(C)(C)C)nc3-c3ccc(F)cc3)nc21 (100 nM)	82.9
CC[C@H](CC#N)OC(=O)N[C@@H](C)c1cccc(NC(=O)Nc2ccc(-c3cnco3)c(OC)c2)c1 [AVN944] (100 nM)	93.5
CC(C)C[C@H](NC(=O)[C@H](CCc1ccccc1)NC(=O)CN1CCOCC1)C(=O)N[C@@H](Cc1ccccc1)C(=O)N[C@@H](CC(C)C)C(=O)[C@@]1(C)CO1 [Carfilzomib] (10 nM)	66.1
CCc1cnn2c(NCc3ccc[n+]([O-])c3)cc(N3CCCC[C@H]3CCO)nc12 [Dinaciclib] (10 nM)	93.8
CC(C)C(=O)Nc1ccc([N+](=O)[O-])c(C(F)(F)F)c1 [Flutamide] (100 nM)	95.8
COc1cc2c(Oc3ccc(NC(=O)C4(C(=O)Nc5ccc(F)cc5)CC4)cc3F)ccnc2cc1OCCCN1CCOCC1 [Foretinib] (10 nM)	97.2
COc1cc(Nc2ncc(F)c(Nc3ccc4c(n3)N(COP(=O)(O)O)C(=O)C(C)(C)O4)n2)cc(OC)c1OC [Fostamatinib] (25 nM)	78.7
CC[C@@H]1C(=O)N(C)c2cnc(Nc3ccc(C(=O)N[C@H]4CC[C@H](N5CCN(CC6CC6)CC5)CC4)cc3OC)nc2N1C(C)C [Volasertib] (10 nM)	1.2

Test system: BT-549
Assay: as above
Settings: incubation time: 72 h
Procedure, shortened: as §1

Compound	normalised response [%]
CC(C)(C)Cn1c(N)nc2ccc(-c3[nH]c(C(C)(C)C)nc3-c3ccc(F)cc3)nc21 (100 nM)	101
CC[C@H](CC#N)OC(=O)N[C@@H](C)c1cccc(NC(=O)Nc2ccc(-c3cnco3)c(OC)c2)c1 [AVN944] (100 nM)	102
CC(C)C[C@H](NC(=O)[C@H](CCc1ccccc1)NC(=O)CN1CCOCC1)C(=O)N[C@@H](Cc1ccccc1)C(=O)N[C@@H](CC(C)C)C(=O)[C@@]1(C)CO1 [Carfilzomib] (10 nM)	81.9
CCc1cnn2c(NCc3ccc[n+]([O-])c3)cc(N3CCCC[C@H]3CCO)nc12 [Dinaciclib] (10 nM)	95
CC(C)C(=O)Nc1ccc([N+](=O)[O-])c(C(F)(F)F)c1 [Flutamide] (100 nM)	94.1
COc1cc2c(Oc3ccc(NC(=O)C4(C(=O)Nc5ccc(F)cc5)CC4)cc3F)ccnc2cc1OCCCN1CCOCC1 [Foretinib] (10 nM)	95.3
COc1cc(Nc2ncc(F)c(Nc3ccc4c(n3)N(COP(=O)(O)O)C(=O)C(C)(C)O4)n2)cc(OC)c1OC [Fostamatinib] (25 nM)	60.2
CC[C@@H]1C(=O)N(C)c2cnc(Nc3ccc(C(=O)N[C@H]4CC[C@H](N5CCN(CC6CC6)CC5)CC4)cc3OC)nc2N1C(C)C [Volasertib] (10 nM)	100

Test system: MDA-MB-231
Assay: as above
Settings: incubation time: 72 h
Procedure, shortened: as §1

Compound	normalised response [%]
CC(C)(C)Cn1c(N)nc2ccc(-c3[nH]c(C(C)(C)C)nc3-c3ccc(F)cc3)nc21 (100 nM)	72.7
CC[C@H](CC#N)OC(=O)N[C@@H](C)c1cccc(NC(=O)Nc2ccc(-c3cnco3)c(OC)c2)c1 [AVN944] (100 nM)	85.2
CC(C)C[C@H](NC(=O)[C@H](CCc1ccccc1)NC(=O)CN1CCOCC1)C(=O)N[C@@H](Cc1ccccc1)C(=O)N[C@@H](CC(C)C)C(=O)[C@@]1(C)CO1 [Carfilzomib] (10 nM)	51.9
CCc1cnn2c(NCc3ccc[n+]([O-])c3)cc(N3CCCC[C@H]3CCO)nc12 [Dinaciclib] (10 nM)	36.4
CC(C)C(=O)Nc1ccc([N+](=O)[O-])c(C(F)(F)F)c1 [Flutamide] (100 nM)	97.2
COc1cc2c(Oc3ccc(NC(=O)C4(C(=O)Nc5ccc(F)cc5)CC4)cc3F)ccnc2cc1OCCCN1CCOCC1 [Foretinib] (10 nM)	102
COc1cc(Nc2ncc(F)c(Nc3ccc4c(n3)N(COP(=O)(O)O)C(=O)C(C)(C)O4)n2)cc(OC)c1OC [Fostamatinib] (25 nM)	92.3
CC[C@@H]1C(=O)N(C)c2cnc(Nc3ccc(C(=O)N[C@H]4CC[C@H](N5CCN(CC6CC6)CC5)CC4)cc3OC)nc2N1C(C)C [Volasertib] (10 nM)	71.8

Test system: HDQ-P1
Assay: as above
Settings: incubation time: 72 h
Procedure, shortened: as §1

Compound	normalised response [%]
CC(C)(C)Cn1c(N)nc2ccc(-c3[nH]c(C(C)(C)C)nc3-c3ccc(F)cc3)nc21 (100 nM)	109
CC[C@H](CC#N)OC(=O)N[C@@H](C)c1cccc(NC(=O)Nc2ccc(-c3cnco3)c(OC)c2)c1 [AVN944] (100 nM)	83.5
CC(C)C[C@H](NC(=O)[C@H](CCc1ccccc1)NC(=O)CN1CCOCC1)C(=O)N[C@@H](Cc1ccccc1)C(=O)N[C@@H](CC(C)C)C(=O)[C@@]1(C)CO1 [Carfilzomib] (10 nM)	96.5
CCc1cnn2c(NCc3ccc[n+]([O-])c3)cc(N3CCCC[C@H]3CCO)nc12 [Dinaciclib] (10 nM)	72.3
CC(C)C(=O)Nc1ccc([N+](=O)[O-])c(C(F)(F)F)c1 [Flutamide] (100 nM)	105
COc1cc2c(Oc3ccc(NC(=O)C4(C(=O)Nc5ccc(F)cc5)CC4)cc3F)ccnc2cc1OCCCN1CCOCC1 [Foretinib] (10 nM)	76.9
COc1cc(Nc2ncc(F)c(Nc3ccc4c(n3)N(COP(=O)(O)O)C(=O)C(C)(C)O4)n2)cc(OC)c1OC [Fostamatinib] (25 nM)	104
CC[C@@H]1C(=O)N(C)c2cnc(Nc3ccc(C(=O)N[C@H]4CC[C@H](N5CCN(CC6CC6)CC5)CC4)cc3OC)nc2N1C(C)C [Volasertib] (10 nM)	87

Test system: Hs578T
Assay: as above
Settings: incubation time: 72 h
Procedure, shortened: as §1

Compound	normalised response [%]
CC(C)(C)Cn1c(N)nc2ccc(-c3[nH]c(C(C)(C)C)nc3-c3ccc(F)cc3)nc21 (100 nM)	105
CC[C@H](CC#N)OC(=O)N[C@@H](C)c1cccc(NC(=O)Nc2ccc(-c3cnco3)c(OC)c2)c1 [AVN944] (100 nM)	98.7
CC(C)C[C@H](NC(=O)[C@H](CCc1ccccc1)NC(=O)CN1CCOCC1)C(=O)N[C@@H](Cc1ccccc1)C(=O)N[C@@H](CC(C)C)C(=O)[C@@]1(C)CO1 [Carfilzomib] (10 nM)	69.9
CCc1cnn2c(NCc3ccc[n+]([O-])c3)cc(N3CCCC[C@H]3CCO)nc12 [Dinaciclib] (10 nM)	-11
CC(C)C(=O)Nc1ccc([N+](=O)[O-])c(C(F)(F)F)c1 [Flutamide] (100 nM)	87.2
COc1cc2c(Oc3ccc(NC(=O)C4(C(=O)Nc5ccc(F)cc5)CC4)cc3F)ccnc2cc1OCCCN1CCOCC1 [Foretinib] (10 nM)	104
COc1cc(Nc2ncc(F)c(Nc3ccc4c(n3)N(COP(=O)(O)O)C(=O)C(C)(C)O4)n2)cc(OC)c1OC [Fostamatinib] (25 nM)	101
CC[C@@H]1C(=O)N(C)c2cnc(Nc3ccc(C(=O)N[C@H]4CC[C@H](N5CCN(CC6CC6)CC5)CC4)cc3OC)nc2N1C(C)C [Volasertib] (10 nM)	77

Test system: HCC1937
Assay: as above
Settings: incubation time: 72 h
Procedure, shortened: as §1

Compound	normalised response [%]
CC(C)(C)Cn1c(N)nc2ccc(-c3[nH]c(C(C)(C)C)nc3-c3ccc(F)cc3)nc21 (100 nM)	105
CC[C@H](CC#N)OC(=O)N[C@@H](C)c1cccc(NC(=O)Nc2ccc(-c3cnco3)c(OC)c2)c1 [AVN944] (100 nM)	83
CC(C)C[C@H](NC(=O)[C@H](CCc1ccccc1)NC(=O)CN1CCOCC1)C(=O)N[C@@H](Cc1ccccc1)C(=O)N[C@@H](CC(C)C)C(=O)[C@@]1(C)CO1 [Carfilzomib] (10 nM)	48.8
CCc1cnn2c(NCc3ccc[n+]([O-])c3)cc(N3CCCC[C@H]3CCO)nc12 [Dinaciclib] (10 nM)	107
CC(C)C(=O)Nc1ccc([N+](=O)[O-])c(C(F)(F)F)c1 [Flutamide] (100 nM)	57.6
COc1cc2c(Oc3ccc(NC(=O)C4(C(=O)Nc5ccc(F)cc5)CC4)cc3F)ccnc2cc1OCCCN1CCOCC1 [Foretinib] (10 nM)	97.2
COc1cc(Nc2ncc(F)c(Nc3ccc4c(n3)N(COP(=O)(O)O)C(=O)C(C)(C)O4)n2)cc(OC)c1OC [Fostamatinib] (25 nM)	102
CC[C@@H]1C(=O)N(C)c2cnc(Nc3ccc(C(=O)N[C@H]4CC[C@H](N5CCN(CC6CC6)CC5)CC4)cc3OC)nc2N1C(C)C [Volasertib] (10 nM)	53.5

Test system: HCC1599
Assay: as above
Settings: incubation time: 72 h
Procedure, shortened: as §1

Compound	normalised response [%]
CC(C)(C)Cn1c(N)nc2ccc(-c3[nH]c(C(C)(C)C)nc3-c3ccc(F)cc3)nc21 (100 nM)	98.1
CC[C@H](CC#N)OC(=O)N[C@@H](C)c1cccc(NC(=O)Nc2ccc(-c3cnco3)c(OC)c2)c1 [AVN944] (100 nM)	93.2
CC(C)C[C@H](NC(=O)[C@H](CCc1ccccc1)NC(=O)CN1CCOCC1)C(=O)N[C@@H](Cc1ccccc1)C(=O)N[C@@H](CC(C)C)C(=O)[C@@]1(C)CO1 [Carfilzomib] (10 nM)	111
CCc1cnn2c(NCc3ccc[n+]([O-])c3)cc(N3CCCC[C@H]3CCO)nc12 [Dinaciclib] (10 nM)	92
CC(C)C(=O)Nc1ccc([N+](=O)[O-])c(C(F)(F)F)c1 [Flutamide] (100 nM)	96.9
COc1cc2c(Oc3ccc(NC(=O)C4(C(=O)Nc5ccc(F)cc5)CC4)cc3F)ccnc2cc1OCCCN1CCOCC1 [Foretinib] (10 nM)	102
COc1cc(Nc2ncc(F)c(Nc3ccc4c(n3)N(COP(=O)(O)O)C(=O)C(C)(C)O4)n2)cc(OC)c1OC [Fostamatinib] (25 nM)	94.1
CC[C@@H]1C(=O)N(C)c2cnc(Nc3ccc(C(=O)N[C@H]4CC[C@H](N5CCN(CC6CC6)CC5)CC4)cc3OC)nc2N1C(C)C [Volasertib] (10 nM)	91.3

Test system: HCC1143
Assay: as above
Settings: incubation time: 72 h
Procedure, shortened: as §1

Compound	normalised response [%]
CC(C)(C)Cn1c(N)nc2ccc(-c3[nH]c(C(C)(C)C)nc3-c3ccc(F)cc3)nc21 (100 nM)	113
CC[C@H](CC#N)OC(=O)N[C@@H](C)c1cccc(NC(=O)Nc2ccc(-c3cnco3)c(OC)c2)c1 [AVN944] (100 nM)	76.5
CC(C)C[C@H](NC(=O)[C@H](CCc1ccccc1)NC(=O)CN1CCOCC1)C(=O)N[C@@H](Cc1ccccc1)C(=O)N[C@@H](CC(C)C)C(=O)[C@@]1(C)CO1 [Carfilzomib] (10 nM)	90.5
CCc1cnn2c(NCc3ccc[n+]([O-])c3)cc(N3CCCC[C@H]3CCO)nc12 [Dinaciclib] (10 nM)	93.7
CC(C)C(=O)Nc1ccc([N+](=O)[O-])c(C(F)(F)F)c1 [Flutamide] (100 nM)	68.4
COc1cc2c(Oc3ccc(NC(=O)C4(C(=O)Nc5ccc(F)cc5)CC4)cc3F)ccnc2cc1OCCCN1CCOCC1 [Foretinib] (10 nM)	104
COc1cc(Nc2ncc(F)c(Nc3ccc4c(n3)N(COP(=O)(O)O)C(=O)C(C)(C)O4)n2)cc(OC)c1OC [Fostamatinib] (25 nM)	100

Test system: BT-474
Assay: as above
Settings: incubation time: 72 h
Procedure, shortened: as §1

Compound	normalised response [%]
CC(C)(C)Cn1c(N)nc2ccc(-c3[nH]c(C(C)(C)C)nc3-c3ccc(F)cc3)nc21 (100 nM)	102
CC[C@H](CC#N)OC(=O)N[C@@H](C)c1cccc(NC(=O)Nc2ccc(-c3cnco3)c(OC)c2)c1 [AVN944] (100 nM)	73.6
CC(C)C[C@H](NC(=O)[C@H](CCc1ccccc1)NC(=O)CN1CCOCC1)C(=O)N[C@@H](Cc1ccccc1)C(=O)N[C@@H](CC(C)C)C(=O)[C@@]1(C)CO1 [Carfilzomib] (10 nM)	87.4
CCc1cnn2c(NCc3ccc[n+]([O-])c3)cc(N3CCCC[C@H]3CCO)nc12 [Dinaciclib] (10 nM)	92
CC(C)C(=O)Nc1ccc([N+](=O)[O-])c(C(F)(F)F)c1 [Flutamide] (100 nM)	99.8
COc1cc2c(Oc3ccc(NC(=O)C4(C(=O)Nc5ccc(F)cc5)CC4)cc3F)ccnc2cc1OCCCN1CCOCC1 [Foretinib] (10 nM)	86.5
COc1cc(Nc2ncc(F)c(Nc3ccc4c(n3)N(COP(=O)(O)O)C(=O)C(C)(C)O4)n2)cc(OC)c1OC [Fostamatinib] (25 nM)	98.7
CC[C@@H]1C(=O)N(C)c2cnc(Nc3ccc(C(=O)N[C@H]4CC[C@H](N5CCN(CC6CC6)CC5)CC4)cc3OC)nc2N1C(C)C [Volasertib] (10 nM)	71.2
